Legend:
Experiment in all cases: relative viability (nuclei count vs DMSO), 5 days (fraction); higher = more cells survive
[1] = compound: CCC1=CN=CN=C1N2CCN(CC2)CC3=NC4=C(N3)C=C(C=C4)C(F)(F)F + CC1(C)CCC(c2ccc(Cl)cc2)=C(CN2CCN(c3ccc(C(=O)NS(=O)(=O)c4ccc(N[C@H](CCN5CCOCC5)CSc5ccccc5)c(S(=O)(=O)C(F)(F)F)c4)cc3)CC2)C1 [Navitoclax] (partner 0.5 µM)
In short: (§1)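 Each reported value is a median over duplicate plates. It expresses relative viability: treated-well nuclei count divided by vehicle-well nuclei count. Lung cancer cell lines in 1536-well plates were dosed by pin tool a day after seeding, alone with one drug or with a fixed anchor-drug dose plus five library-drug doses (not always all listed) in √10 steps, and nuclei were counted after 5 days.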

[2] = compound: CCn1c(-c2nonc2N)nc2cnc(Oc3cccc(NC(=O)c4ccc(OCCN5CCOCC5)cc4)c3)cc21 + CC(=O)c1c(C)c2cnc(Nc3ccc(N4CCNCC4)cn3)nc2n(C2CCCC2)c1=O [Palbociclib] (partner 0.5 µM)
In short: as §1

[3] = compound: CCn1c(-c2nonc2N)nc2cnc(Oc3cccc(NC(=O)c4ccc(OCCN5CCOCC5)cc4)c3)cc21 + CC1(C)CCC(c2ccc(Cl)cc2)=C(CN2CCN(c3ccc(C(=O)NS(=O)(=O)c4ccc(N[C@H](CCN5CCOCC5)CSc5ccccc5)c(S(=O)(=O)C(F)(F)F)c4)cc3)CC2)C1 [Navitoclax] (partner 0.5 µM)
In short: as §1

Mirin + Pemetrexed = compound: N=C1NC(=O)/C(=C/c2ccc(O)cc2)S1 [Mirin] + Nc1nc2[nH]cc(CCc3ccc(C(=O)N[C@@H](CCC(=O)O)C(=O)O)cc3)c2c(=O)[nH]1 [Pemetrexed] (partner 0.2 µM)
In short: as §1

Row | Cell Line | relative viability ([1]; first compound 0.04 µM) | relative viability ([1]; first compound 0.1265 µM) | relative viability ([1]; first compound 0.4 µM) | relative viability ([1]; first compound 4 µM) | relative viability ([2]; first compound 0.04 µM) | relative viability ([2]; first compound 0.1265 µM) | relative viability ([2]; first compound 0.4 µM) | relative viability ([2]; first compound 1.265 µM) | relative viability ([2]; first compound 4 µM) | relative viability ([3]; first compound 0.04 µM) | relative viability ([3]; first compound 0.1265 µM) | relative viability ([3]; first compound 1.265 µM) | relative viability ([3]; first compound 4 µM) | relative viability (Mirin + Pemetrexed; first compound 0.25 µM) | relative viability (Mirin + Pemetrexed; first compound 0.7906 µM) | relative viability (Mirin + Pemetrexed; first compound 2.5 µM) | relative viability (Mirin + Pemetrexed; first compound 7.906 µM) | relative viability (Mirin + Pemetrexed; first compound 25 µM) | relative viability ([3]; first compound 0.4 µM) | relative viability ([1]; first compound 1.265 µM)
1 | NCI-H1944 | 0.97 | 0.948 | 1 | 0.916 | 0.269 | 0.377 | 0.342 | 0.329 | 0.38 | 1.03 | 1.03 | 1.02 | 0.97 | 0.636 | 0.627 | 0.598 | 0.558 | 0.598 |  | 
2 | NCI-H1734 | 0.852 | 0.839 | 0.856 | 0.907 | 0.335 | 0.365 | 0.293 | 0.319 | 0.267 | 1.11 | 0.81 | 0.564 | 0.345 | 0.441 | 0.44 | 0.414 | 0.355 | 0.346 | 0.684 | 
3 | A-427 | 0.873 | 0.9 | 0.915 | 0.826 | 0.46 | 0.495 | 0.412 | 0.283 | 0.275 | 1.04 | 1.07 | 0.964 | 1.01 | 1 | 0.957 | 1.02 | 0.991 | 0.934 | 0.887 | 0.872
4 | SK-LU-1 | 0.78 | 0.762 | 0.929 | 0.868 | 0.434 | 0.368 | 0.337 | 0.275 | 0.295 | 1.07 | 0.619 | 0.296 | 0.229 | 0.983 | 0.992 | 0.931 | 0.855 | 0.823 | 0.383 | 0.697
5 | NCI-H838 | 1.23 | 1.12 | 1.11 | 1.07 | 0.19 | 0.175 | 0.147 | 0.157 | 0.179 | 0.982 | 0.686 | 0.354 | 0.294 | 0.235 | 0.259 | 0.258 | 0.236 | 0.188 | 0.569 | 1.14
6 | LCLC-97TM1 | 0.411 | 0.384 | 0.396 | 0.396 | 0.276 | 0.245 |  | 0.27 | 0.281 | 0.481 | 0.333 | 0.463 | 0.442 | 0.161 | 0.128 | 0.14 | 0.149 | 0.127 |  | 0.489
7 | BEN | 0.0475 | 0.075 | 0.0493 | 0.0644 | 0.473 | 0.469 | 0.472 | 0.77 | 0.441 | 0.0536 | 0.0704 | 0.0468 | 0.0489 | 0.661 | 0.779 | 0.799 | 0.667 | 0.581 | 0.0589 | 0.0611
8 | NCI-H2023 | 0.987 | 0.941 | 0.962 | 1.12 | 0.415 | 0.392 | 0.337 | 0.215 | 0.202 | 1.18 | 0.963 | 0.773 | 0.688 | 0.254 | 0.258 | 0.218 | 0.247 | 0.156 | 1.04 | 1.03

Source: the supplement of paper PMC10307832
